System: CK8+ luminal cells
Experiment: Contralateral intraductal injection: FACS DNA content analysis of CK8+ luminal cells
Format: in vivo, mouse
Protocol: Nulliparous analysis was performed using adult (10-12-week-old) female mice. For timed pregnancies and lactation analysis, CD-1 pregnant adult females were obtained from Charles Rivers. Embryos were examined at the time of mammary gland harvesting to confirm pregnancy state. […] Plugged mice were considered to be PD0.5 on the day of the observed plug. All females used in this study were age matched. Mice were anesthetized with isoflurane (VetOne, 501017) Prior to intraductal injections, hair was removed from around the nipples using Nair hair remover. Injections into the duct of the nipple were performed with 33 G needles (Hamilton, 7803-05) and a volume of 40 μl per gland. Right inguinal, abdominal and thoracic glands were injected with doxorubicin (1.5 μg per gland, Cayman Chemical, 15007), nucleosides (40 μl per gland, Millipore-Sigma, ES-008-D) or Mk-1775 (50 μg per gland, Cayman Chemical, 21266), and left glands were injected with PBS or DMSO (Thermo Scientific, BP231) diluted in PBS. Mechanically dissociated inguinal, abdominal, and thoracic mammary fat pads were prepared into cell suspension for flow cytometry or fluorescence-activated cell sorting (FACS). The lymph node was removed from abdominal glands. Glands were chopped using a mechanical tissue chopper and digested for 1 h at 37° C. in digestion media [RPM1 containing 1% FBS, collagenase IA (Sigma, C9891), hyaluronidase (Sigma, H3506) and DNAse I (Worthington, LS002007)]. […] Tissue was further digested using pre-warmed 0.25% Trypsin-EDTA (Thermo Fisher, 25200056), washed, and digested with 5 mg/ml of pre-warmed dispase II (Roche, 4942078001). Red blood cells were lysed using Ammonium Chloride Solution (Stem Cell Technologies, 07850). Cells were washed, resuspended and filter through a 70 μm cell strainer (Falcon, 08-771-2) and processed for downstream applications. For DNA content analysis of the mammary gland CK8^+ epithelial population, mammary gland cells suspension was obtained as described above. Cells were fixed in ice-cold 70% EtOH at a final concentration of 10^6 cells/ml. During fixation, cells were vigorously vortexed for 1 min to avoid the formation of cell aggregates. Cells were washed twice with washing buffer [1×PBS containing 5% FBS and 0.5% tween 20 (Fisher Chemical, BP337500)] and centrifuged at 2,000 rpm for 5 min at 4° C. Cell pellet was incubated for 1 h at room temperature with anti-CK8 (Developmental Studies Hybridoma Lab, TROMA-1), anti-GFP (Thermo Fisher, A01704) or corresponding rat (Thermo-Fisher, 10700) or rabbit (Thermo-Fisher, 10500C) IgG isotype controls. Cells were washed twice and incubated for 1 h at room temperature in darkness with FITC anti-Rat (Thermo Fisher, A24544) or FITC anti-Rabbit (Thermo Fisher, A16030) and APC anti-Rat (Jackson ImmunoResearch, 712-136-153). Cells were washed twice and resuspended in propidium iodide solution [1×PBS containing 25 μg/ml of propidium iodide (Thermo Fisher, P3566) and 100 μg/ml of RNAse (Thermo Fisher, 12091021)]. For DNA content analysis on HC11, cells were washed with 1×DPBS (GIBCO, 14190-250) and harvested using 0.05% Trypsin-EDTA (GIBCO, 25300-062). Cell suspension was washed with 1×DPBS and centrifuged at 1,000 rpm for 5 min at 4° C. Cell pellet was fixed in ice-cold 70% EtOH and then vortexed vigorously to avoid cell aggregates. After fixation, cells were washed with washing buffer [1×PBS (GIBCO, 14190136) supplemented with 5% FBS] and centrifuged at 2,000 rpm for 5 min at 4° C. The pellet was resuspended in propidium iodide solution. Cell suspensions were filtered through a 70 μm cell strainer (Falcon, 08-771-2) and analyzed using a BD LSRII cytometer or a BD FACS Aria II Cell Sorter. Populations were analyzed using FlowJo.

[1] = doxorubicin IDI at PD12.5 vs contralateral DMSO, MGs at PD17.5
[2] = Mk-1775 IDI at PD16.5 vs contralateral DMSO, by LD5

SMILES	decrease in 2C luminal population (in the overall population) [1] [%]	increase in 4C luminal population (in the overall population) [1] [%]	increase in >4C luminal population (in the overall population) [1] [%]	decrease in 4C CK8+ population (in the overall population) (Mk-1775 IDI (50 μg per gland) at PD16.5 vs contralateral DMSO, at LD2) [%]	increase in 2C CK8+ population (in the overall population) (Mk-1775 IDI at PD16.5 vs contralateral DMSO, LD2) [%]	increase in 2C CK8+ population (in the overall population) (Mk-1775 IDI at PD16.5 vs contralateral DMSO, LD5) [%]	decrease in 4C CK8+ population (in the overall population) [2] [%]	decrease in >4C CK8+ population (in the overall population) [2] [%]
COc1cccc2c1C(=O)c1c(O)c3c(c(O)c1C2=O)C[C@@](O)(C(=O)CO)C[C@@H]3O[C@H]1C[C@H](N)[C@H](O)[C@H](C)O1 [doxorubicin]	5.23	14.86	47.1	–	–	–	–	–
C=CCn1c(=O)c2cnc(Nc3ccc(N4CCN(C)CC4)cc3)nc2n1-c1cccc(C(C)(C)O)n1 [Mk-1775]	–	–	–	19.4	7.7	12.4	3.2	16.31
